{"source": "patent US20030212014A1", "about": "(priority 2000, published 2003)", "key": {"[1]": {"tested_on": "AMP-activated protein kinase (AMPK)", "test": "AMP-activated protein kinase activity in HUVEC incubated with AICAR", "assay_type": "cell-based, human", "protocol": "The enzyme was assayed in a reaction mixture containing either no AMP or 0.2 mM 5′-AMP. The difference in the activity is the AMP-activated kinase activity. […] This indicates the presence of AMPK and AMPKK in HUVEC.\nOne of the major ATP users, the Na^+/K^+pump, was investigated. The activity of this pump was tested by measuring the uptake of radioactive rubidium in the absence and presence of ouabain, an Na^+/K^+pump inhibitor. The difference in uptake, which is referred to as ouabain-sensitive Rb^+uptake, is the Na^+/K^+pump activity. […] When the ouabain sensitive component was calculated, no ,difference was seen between the two incubations, (2.11±0.9 and 3.3±0.9 pmol/min/mg protein), thus leading us to believe that no change in Na^+/K^+pump activity had occurred. […] The AMPK activity remained high with a longer incubation time up to 120 minutes."}, "[2]": {"tested_on": "human and bovine retinal pericytes", "test": "Palmitate-induced apoptosis in retinal pericytes (TUNEL staining)", "assay_type": "cell-based", "protocol": "(§1) Apoptosis was induced by incubating the cells with a medium containing 0-0.5 mM palmitic acid for 3 days. Apoptotic cells were determined by conventional TUNEL staining. Ceramide and DAG levels were measured the by diacylgycerol kinase method using 32P-ATP."}, "human retinal pericytes": {"tested_on": "human retinal pericytes", "test": "Ceramide and DAG levels by diacylglycerol kinase method in pericytes", "assay_type": "cell-based", "protocol": "as §1"}, "HUVEC [3]": {"tested_on": "HUVEC", "test": "Hyperglycemia-induced apoptosis in HUVEC (TUNEL)", "assay_type": "cell-based, human", "details": "30 mM glucose + 1 mM AICAR", "protocol": "(A) Typical TUNEL staining (dark brown) with methylene blue counter-staining. TUNEL positive cells show a typical apoptotic configuration with shrinkage and nuclear fragmentation. […] The percentage of TUNEL positive cells was determined in 3 wells of 6 well plates (24 hr) or in eight of 60 mm dishes. Data are means ±SD.*p<0.05; vs 5 mM glucose. † p<0.05; vs 30 mM glucose alone;"}, "caspase-3": {"tested_on": "caspase-3", "test": "Caspase-3 activity in HUVEC incubated with 30 mM glucose", "assay_type": "cell-based, human", "details": "30 mM glucose + AICAR, 24 hr", "source_text": "A similar effect was observed when AMPK activity was increased by infecting HUVEC with constitutively active AMPK using an adenoviral vector (FIG. 9C)."}, "HUVEC [4]": {"tested_on": "HUVEC", "test": "Fatty acid metabolism and malonyl CoA in HUVEC after 24 hr in 30 mM glucose", "assay_type": "cell-based, human", "details": "30 mM glucose + 1 mM AICAR", "protocol": "Fatty acid oxidation was measured over 2 hours after 24 hr prelabeling with ^3H-palmitate. Data are means ±SD (n=4−6). *P<0.05; vs 5 mM glucose. † p<0.05; vs 30 mM glucose;\n(§2) We have previously shown that incubation of HUVEC for 2 hr in media containing 30 mM vs 5 mM glucose causes no changes in AMPK activity, malonyl CoA concentration, fatty acid oxidation, or lactate release. […] In addition, it impaired Akt phosphorylation in the presence of insulin (FIG. 11). […] AMPK activity tended to be higher after 24 h of incubation with 30 mM glucose; however, whether it was inappropriately low, in light of the decrease in ATP content (and presumably an increased AMP/ATP ratio), was not ascertained."}, "Akt": {"tested_on": "Akt", "test": "Akt phosphorylation in the presence of insulin in HUVEC", "assay_type": "cell-based, human", "details": "30 mM glucose + 1 mM AICAR, 24 h", "protocol": "Results are means±SE (n=4) *p<0.05 vs 5 mM glucose. † p<0.05 vs 30 mM glucose;\nas §2"}, "juvenile rats": {"tested_on": "juvenile rats", "test": "Chronic intermittent AICAR treatment of juvenile rats", "assay_type": "in vivo, rat", "protocol": "This dose distributed in the extracellular space of the rat (approx. 20 ml/100g b. w.) yields a concentration in the extracellular space of approximately 5 mM.\nReferring to FIG. 19, it can be seen that food intake was diminished by approximately 25% over the first 24 hrs following each injection. The rats appear to compensate by eating more on the following day. […] Cumulative net food intake was diminished only modestly (about 3%) during all long-term studies.\nThese include the GLUT 4 glucose transporter, hexokinase and various mitochondrial enzymes including cytochrome C oxidase and citrate synthase. […] Also we found no increase in muscle glycogen."}, "high-fat fed (HFF) rats": {"tested_on": "high-fat fed (HFF) rats", "test": "Euglycemic hyperinsulinemic clamp in HFF rats 24 h after AICAR injection", "assay_type": "in vivo, rat", "protocol": "They were then returned to their cages and given a high-fat meal. […] To avoid the possible effects of a reduced caloric intake, the HFF-Con animals were pair-fed with HFF-AIC rats. 24 h after the injection, and after a 5-7 h fasting period, the rats were submitted to an euglycemic hyperinsulinemic clamp, to determine the whole body insulin sensitivity."}, "[5]": {"details": "1 mM AICAR vs 0.5 mM palmitate alone"}, "[6]": {"details": "250 mg/kg, 3 days/wk over 106 days"}, "[7]": {"details": "12-week study period, not statistically significant"}, "[8]": {"details": "clamp 24 h after 250 mg/kg AICAR"}}, "data": [{"smiles": "NC(=O)c1ncn([C@@H]2O[C@H](CO)[C@@H](O)[C@H]2O)c1N", "note": "[AICAR, 5-aminoimidizole-4-carboxamide riboside]", "values": [{"measurement": "AMP-activated kinase activity", "setting": "[1]; 0.2 mM AICAR, 30 minutes, HUVEC", "result": "15.8±0.4", "unit": "pmol/min/mg protein"}, {"measurement": "AMP-activated kinase activity", "setting": "[1]; 0.5 mM AICAR, 30 minutes, HUVEC", "result": "22.5±0.3", "unit": "pmol/min/mg protein"}, {"measurement": "AMP-activated kinase activity", "setting": "[1]; 2 mM AICAR, 30 minutes, HUVEC (concentration series)", "result": "30.9±0.2", "unit": "pmol/min/mg protein"}, {"measurement": "AMP-activated kinase activity", "setting": "[1]; 2 mM AICAR, at 30 minutes (time course)", "result": 30.8, "unit": "pmol/min/mg protein"}, {"measurement": "AMP-activated kinase activity", "setting": "[1]; 2 mM AICAR, at 60 minutes (time course)", "result": 31.5, "unit": "pmol/min/mg protein"}, {"measurement": "AMP-activated kinase activity", "setting": "[1]; 2 mM AICAR, at 120 minutes (time course)", "result": 32.3, "unit": "pmol/min/mg protein"}, {"measurement": "apoptotic cells (TUNEL)", "setting": "[2]; 0.5 mM palmitate + 1 mM AICAR, 3 days", "result": "10±2", "unit": "%"}, {"measurement": "decrease in apoptosis", "setting": "[2]; [5]", "result": 50, "unit": "%"}, {"measurement": "DAG levels", "setting": "human retinal pericytes; 0.5 mM palmitate + 1 mM AICAR", "result": "24±5", "unit": "nmol/mg protein"}, {"measurement": "ceramide levels", "setting": "human retinal pericytes; 0.5 mM palmitate + 1 mM AICAR", "result": "3.8±1", "unit": "nmol/mg protein"}, {"measurement": "decrease in DAG levels", "setting": "human retinal pericytes; [5]", "result": 50, "unit": "%"}, {"measurement": "decrease in ceramide levels", "setting": "human retinal pericytes; [5]", "result": 60, "unit": "%"}, {"measurement": "apoptotic rate (TUNEL-positive cells)", "setting": "HUVEC [3]; 24 hours", "result": "no affect"}, {"measurement": "increase in apoptosis caused by hyperglycemia", "setting": "HUVEC [3]; 72 hours", "result": "completely prevented"}, {"measurement": "caspase-3 activity", "setting": "caspase-3", "result": "833±14", "unit": "arbitrary unit"}, {"measurement": "concentration of malonyl-CoA", "setting": "HUVEC [4]", "result": "even lower than that in cells incubated with 5 mM glucose"}, {"measurement": "diminished fatty acid oxidation caused by 30 mM glucose", "setting": "HUVEC [4]", "result": "completely prevented"}, {"measurement": "increased incorporation of radioactive glucose and palmitate into diacylglycerol caused by 30 mM glucose", "setting": "HUVEC [4]", "result": "completely prevented"}, {"measurement": "impaired Akt phosphorylation in the presence of insulin caused by 30 mM glucose", "setting": "Akt", "result": "completely prevented"}, {"measurement": "decrease in food intake over the first 24 hrs following each injection", "setting": "juvenile rats; 250 mg/kg 3 times/week, chow diet", "result": "approximately 25%"}, {"measurement": "hepatic enlargement", "setting": "juvenile rats; 250 mg/kg intermittent regimen", "result": "no hepatic enlargement"}, {"measurement": "hepatocellular damage, morphologically (light microscope)", "setting": "juvenile rats; 250 mg/kg intermittent regimen", "result": "no evidence of hepatocellular damage"}, {"measurement": "decrease in mass of intra-abdominal (retroperitoneal, mesenteric, epididymal) fat depots", "setting": "juvenile rats; 250 mg/kg s.c. M, W, F for 25 days", "result": "20-40%"}, {"measurement": "GLUT 4, UCP3, cytochrome C oxidase (RT-PCR) and citrate synthase activity in muscle", "setting": "juvenile rats; [6]", "result": "no changes"}, {"measurement": "muscle glycogen", "setting": "juvenile rats; [6]", "result": "no increase"}, {"measurement": "weights of the heart, liver or other organs", "setting": "juvenile rats; 250 mg/kg, at 25 days", "result": "no differences"}, {"measurement": "muscle mass", "setting": "juvenile rats; 250 mg/kg, at 106 days", "result": "increase in muscle mass is suggested"}, {"measurement": "decrease in food intake", "setting": "juvenile rats; [7]", "result": "3-4%"}, {"measurement": "weight gain less than control", "setting": "juvenile rats; [7]", "result": 32, "unit": "g"}, {"measurement": "decrease in plasma triglycerides", "setting": "juvenile rats; 25 days treatment, 250 mg/kg", "result": 40, "unit": "%"}, {"measurement": "plasma leptin", "setting": "juvenile rats; 25 days treatment, 24 hrs following the last injection", "result": "significantly diminished"}, {"measurement": "decrease in cumulative net food intake", "setting": "juvenile rats; all long-term studies", "result": "about 3%"}, {"measurement": "glucose and insulin levels during an oral glucose tolerance test", "setting": "juvenile rats; chronic AICAR treatment", "result": "lower"}, {"measurement": "plasma insulin levels", "setting": "juvenile rats; chronic AICAR treatment", "result": "significantly diminished"}, {"measurement": "tolerability / gross toxicity", "setting": "juvenile rats; rat, in vivo, sc, 250 mg/kg", "result": "without evidence of gross toxicity"}, {"measurement": "levels of muscle triglycerides or long chain fatty acyl CoA (LCFACoA)", "setting": "high-fat fed (HFF) rats; after clamp", "result": "no significant change"}, {"measurement": "decrease in liver malonyl-CoA", "setting": "high-fat fed (HFF) rats; after clamp, vs HFF-Con", "result": 21, "unit": "%"}, {"measurement": "reduction of liver triglycerides accumulation", "setting": "high-fat fed (HFF) rats; after clamp, vs HFF-Con", "result": 33, "unit": "%"}, {"measurement": "food eaten overnight", "setting": "high-fat fed (HFF) rats; after single 250 mg/kg s.c. injection, high-fat meal", "result": "minor reduction"}, {"measurement": "reduction of malonyl-CoA in red muscle", "setting": "high-fat fed (HFF) rats; after the clamp, vs HFF-Con", "result": 44, "unit": "%"}, {"measurement": "basal plasma glucose (hyperglycemia caused by high-fat feeding)", "setting": "high-fat fed (HFF) rats; basal state, 24 h after AICAR", "result": "decreased the hyperglycemia"}, {"measurement": "other basal plasma parameters (insulin, FFA, triglycerides)", "setting": "high-fat fed (HFF) rats; basal state, vs HFF-Con", "result": "did not alter"}, {"measurement": "Rd", "setting": "high-fat fed (HFF) rats; [8]", "result": "slight but not significant increase"}, {"measurement": "increase in glucose infusion rate (GIR)", "setting": "high-fat fed (HFF) rats; [8]", "result": 50, "unit": "%"}, {"measurement": "HGO under insulin", "setting": "high-fat fed (HFF) rats; clamp 24 h after 250 mg/kg AICAR, p>0.05 vs. Chow", "result": "close to the normal value"}, {"measurement": "increase in Rg' (rate of glucose uptake) in white muscle", "setting": "high-fat fed (HFF) rats; clamp 24 h after AICAR", "result": 79, "unit": "%"}, {"measurement": "Rg' in red muscle", "setting": "high-fat fed (HFF) rats; clamp 24 h after AICAR, p=0.085", "result": "tendency of increased"}, {"measurement": "insulin-stimulated glucose incorporation into glycogen", "setting": "high-fat fed (HFF) rats; white and red muscle", "result": "significantly increased"}]}]}
